According to US20040121307A1, “Early detection of cellular differentiation using optophoresis” (Genoptix, Inc, priority 2002, published 2004):
≈ marks a conversion by molar mass, not a printed value.

Tests used:
Assay type in all cases: cell-based
[1] = test system: U937 cells; assay: Experiment 13: quantitative determination of PKC activation, escape velocity dose response; conditions: for escape velocity, Average: five hours
Description: Optophoretic analysis was used to develop a full dose response curve for U937 cells treated with PMA. U937 cells were incubated with varying amounts of PMA dissolved in DMSO. The following concentrations of PMA were tested: 0.156 ng/ml, 0.312 ng/ml, 0.625 ng/ml, 1.25 ng/ml, 2.5 ng/ml, 5 ng/ml, and no PMA (control). The cells were incubated with the PMA solutions (or simply DMSO in the case of the control) for five hours. At the end of the incubation period, the cells were centrifuged down for five minutes at 5000 rpm. The supernatent was then removed and the pellet resuspended in 1 ml PBS/1% BSA buffer plus 1:10 trypan blue. The cells were then loaded onto a cover slip containing agarose that was spin-coated onto the surface thereof. Escape velocity measurements were then taken using a 100 mW laser having a beam diameter of 28 pixels. Table 9 reproduced below sets forth the measured escape velocities (μm/sec) for each of the various PMA concentrations.
The method described above may be used to quantitatively determine the level of PKC activation in cells in response to exposure to PKC activating compound using a moving optical gradient. The method includes the steps of first providing a series of cell samples and exposing the series of cell samples to different concentrations of the PKC activating compound. After a period of incubation from about one to several hours, the cells and the optical gradient are moved relative to each other so as to cause displacement of at least some of the cells. Next, the displacement of at least a portion of the displaced cells is measured for each of the different concentrations. […] From the dose response curve, one is able to calculate one or more numerical values that correlate to PKC potency and/or efficacy. For example, the dose response curve can be used to calculate the EC50, Hill slope, or plateau value relative to a standard compound.

[2] = test system: CD11b expression in HL-60 cells; assay: FACS CD11b expression profile; conditions: 400 ng/ml PMA
Description: (§1) Fast scan analysis was also performed on HL-60 cells that were treated with PMA and DMSO. A time course evaluation of PMA treated HL-60 cells was performed with fast scan data taken at 16 hours, 24 hours, 40 hours, and 72 hours post-treatment with 400 ng/ml PMA. A control sample of HL-60 cells was also tested using EtOH as the vehicle for purposes of comparing the differentiated cells with the undifferentiated HL-60 cells. The PMA-treated and control cells were harvested and trypsinized. The samples were then resuspended in PBS/1% BSA. A set of samples was also obtained and left as pellets at 4° C. for subsequent FACS analysis.
FIG. 145 illustrates a histogram of the travel distance of the control cells as well as the PMA-treated cells at 16 hours, 24 hours, 40 hours, and 72 hours post-treatment. FIG. 146 illustrates the mean travel distances of the control cells as well as the PMA-treated cells at 16 hours, 24 hours, 40 hours, and 72 hours post-treatment. FIG. 147 illustrates the FACS CD11b expression profile in PMA-treated HL-60 cells as well as the control. CD11b is a known marker of cellular differentiation and is expressed on the surface of differentiating cells. […] The data illustrate that Optophoretic analysis can be used as an assay for the detection and quantification of cellular differentiation. […]

[3] = test system: HL-60 cells; assay: Cellular differentiation of HL-60, fast scan time course; conditions: 400 ng/ml PMA, fast scan
Description: as §1
A time course evaluation of DMSO treated HL-60 cells was performed with fast scan data taken at 16 hours, 24 hours, 40 hours, and 70 hours post-treatment with 1% DMSO. A control sample of HL-60 cells was also tested for purposes of comparing the differentiated cells with the undifferentiated HL-60 cells. The DMSO-treated and control cells were then harvested and resuspended in PBS/1% BSA. A set of samples was also obtained and left as pellets at 4° C. for subsequent FACS analysis.

[4] = test system: U937 cells; assay: Separation of drug treated and untreated leukemia cells, escape velocity; conditions: PMA 5 ug/mL, 6 hours
Description: PMA was dissolved in ethanol at a concentration of 5 mg/mL. 3 mls of U937 cells grown in RPMI 1640 media with supplements were removed from the culture flask and 1 ml was placed into each of three eppendorf tubes. Cells from the first tube were pelleted for 4 minutes at 10,000 rpm and resuspended in 250 uL PBS/1% BSA buffer for escape velocity measurements. PMA was added to the remaining two tubes of U937 cells to a final concentration of 5 ug/mL. These tubes were vortexed and placed in a 37° C. water bath for either one hour or six hours. At the end of the time point, the tube was removed, cells were pelleted and then resuspended as described above and escape velocity measurements taken.

With CCCCCCCCCCCCCC(=O)O[C@@H]1[C@@H](C)[C@@]2(O)[C@@H](C=C(CO)C[C@]3(O)C(=O)C(C)=C[C@@H]23)[C@@H]2C(C)(C)[C@]12OC(C)=O [PMA, phorbol 12 myristate 13-acetate] the “escape velocity, Average” value ([1]; 1.25 ng/ml PMA) was 17.0 μm/sec, the “escape velocity, Average” value ([1]; 2.5 ng/ml PMA) was 17.0 μm/sec and the “escape velocity, Average” value ([1]; 5 ng/ml PMA) was 17.3 μm/sec. For the same molecule, the “escape velocity, Average” value ([1]; .156 ng/ml PMA) was 15.8 μm/sec, the “escape velocity, Average” value ([1]; .312 ng/ml PMA) was 16.0 μm/sec and the “escape velocity, Average” value ([1]; .625 ng/ml PMA) was 16.6 μm/sec. The EC50 ([1]; Homo sapiens, U-937, 5 h, U937 cells, five hours (FIG. 53), read-out: EC50 value of the PMA dose response curve (escape velocity)) was about 0.625 ng/mL (≈ 1.01 nM), the “time after treatment at which a noticeable change in CD11b expression levels was observed” value [2] was “about 40 hours” and the “time after treatment at which Optophoretic analysis detected cellular differentiation into monocytes/macrophages” value [3] was at most 16 h. For the same molecule, the “escape velocity as compared to the untreated cells” value [4] was “significantly higher escape velocity”.
